Source: BindingDB's records for doi:10.1016/j.bmcl.2020.127004 (Merck, 2020)

Experiments:
[1] = Non-nucleoside inhibition of NS5B polymerase in HCV genotype 2a by Taqman probe based RT-PCR analysis
[2] = Non-nucleoside inhibition of NS5B polymerase in HCV genotype 4a by Taqman probe based RT-PCR analysis
[3] = Non-nucleoside inhibition of NS5B polymerase C316Y mutant in HCV genotype 1a by Taqman probe based RT-PCR analysis
[4] = Non-nucleoside inhibition of NS5B polymerase in HCV genotype 2b by Taqman probe based RT-PCR analysis
[5] = Non-nucleoside inhibition of NS5B polymerase in HCV genotype 1a by Taqman probe based RT-PCR analysis
[6] = Non-nucleoside inhibition of NS5B polymerase in HCV genotype 1b by Taqman probe based RT-PCR analysis
[7] = Non-nucleoside inhibition of NS5B polymerase in HCV genotype 3a by Taqman probe based RT-PCR analysis
[8] = Non-nucleoside inhibition of NS5B polymerase S365A mutant in HCV genotype 1a by Taqman probe based RT-PCR analysis

| SMILES | EC50 [1] [nM] | EC50 [2] [nM] | EC50 [3] [nM] | EC50 [4] [nM] | EC50 [5] [nM] | EC50 [6] [nM] | EC50 [7] [nM] | EC50 [8] [nM] |
| --- | --- | --- | --- | --- | --- | --- | --- | --- |
| CNC(=O)c1c(-c2ccc(F)cc2)oc2cc(N(C)S(C)(=O)=O)c(-c3ccc4nnn(C(C)c5ccc(F)cc5)c(=O)c4c3)cc12 (configuration not stated) | 9.3 | 1.1 | 15 | 5.8 | 2.8 | 2.9 | 0.8 | 277 |
| CNC(=O)c1c(-c2ccc(F)cc2)oc2cc(N(C)S(C)(=O)=O)c(-c3ccc4nnn(C(CO)c5ccc(F)cc5)c(=O)c4c3)cc12 (configuration not stated) | 20 | 4.5 | 523 | 6 | 7.3 | 5.6 | 0.9 | 1130 |
| CNC(=O)c1c(-c2ccc(F)cc2)oc2cc(N(C)S(C)(=O)=O)c(-c3ccc4nc(C)n(Cc5ccc(F)cn5)c(=O)c4c3)cc12 | 11 | 1.6 | 36 | 4.2 | 1.3 | 2.6 | 1.7 | 228 |
| CNC(=O)c1c(-c2ccc(F)cc2)oc2cc(N(C)S(C)(=O)=O)c(-c3ccc4nc(C)n(Cc5ccc(F)cc5OC)c(=O)c4c3)cc12 | 13 | 2.2 | 44 | 5 | 1 | 1.5 | 1.1 | 177 |
| CNC(=O)c1c(-c2ccc(F)cc2)oc2cc(N(C)S(C)(=O)=O)c(-c3ccc4nc(C)n(Cc5ccc(F)cc5F)c(=O)c4c3)cc12 | 8.3 | 0.7 | 5.4 | 5.4 | 0.5 | 0.8 | 0.9 | 11 |
| CNC(=O)c1c(-c2ccc(F)cc2)oc2cc(N(C)S(C)(=O)=O)c(-c3ccc4nc(C)n([C@H](COC)c5ccc(F)cc5)c(=O)c4c3)cc12 | 19 | 2.4 | 21 | 11 | 0.6 | 1.1 | 1.6 | 37 |
| CNC(=O)c1c(-c2ccc(F)cc2)oc2cc(N(C)S(C)(=O)=O)c(-c3ccc4nc(C)n([C@@H](COC)c5ccc(F)cc5)c(=O)c4c3)cc12 | 7.5 | 0.6 | 30 | 4.1 | 0.5 | 1.1 | 1.1 | 17 |
| CNC(=O)c1c(-c2ccc(F)cc2)oc2cc(N(C)S(C)(=O)=O)c(-c3ccc4c(n3)C(=O)N(c3ccc(F)cc3)CO4)cc12 [US9364482, 2] | 151 | 8.4 | 452 | 19 | 19 | 3.8 | 1.5 | 1360 |
| CNC(=O)c1c(-c2ccc(F)cc2)oc2cc(N(C)S(C)(=O)=O)c(-c3ccc4c(n3)C(=O)N(Cc3ccc(F)cc3)CO4)cc12 [US9364482, 6] | 4.6 | 0.3 | 3.5 | 19 | 1.6 | 1.3 | 1.8 | 0.7 |
| CNC(=O)c1c(-c2ccc(F)cc2)oc2cc(N(C)S(C)(=O)=O)c(-c3ccc4nnn([C@H](COC)c5ccc(F)cc5)c(=O)c4c3)cc12 [US9364482, 39] | 12 | 0.7 | 18 | 3.9 | 1.2 | 2.6 | 1 | 68 |
| CNC(=O)c1c(-c2ccc(F)cc2)oc2cc(N(C)S(C)(=O)=O)c(-c3ccc4nnn([C@@H](COC)c5ccc(F)cc5)c(=O)c4c3)cc12 [US9364482, 41] | 16 | 6 | 292 | 11 | 4.9 | 5.6 | 1.8 | 474 |
| CNC(=O)c1c(-c2ccc(F)cc2)oc2cc(N(C)S(C)(=O)=O)c(-c3ccc4nnn(Cc5ccccc5)c(=O)c4c3)cc12 [US9364482, 42] | 8.8 | 3 | 68 | 6.2 | 2.3 | 3.5 | 1 | 335 |
| CNC(=O)c1c(-c2ccc(F)cc2)oc2cc(N(C)S(C)(=O)=O)c(-c3ccc4nnn(Cc5ccc(F)cc5)c(=O)c4c3)cc12 [US9364482, 44] | 13 | 1.4 | 12 | 4 | 1.7 | 3.9 | 0.8 | 76 |
| CNC(=O)c1c(-c2ccc(F)cc2)oc2cc(N(C)S(C)(=O)=O)c(-c3ccc4nnn(Cc5ccc(F)cn5)c(=O)c4c3)cc12 [US9364482, 48] | 11 | 2.1 | 29 | 5.6 | 3.3 | 2.7 | 1.1 | 446 |
| CNC(=O)c1c(-c2ccc(F)cc2)oc2cc(N(C)S(C)(=O)=O)c(-c3ccc4ncn(Cc5ccccc5)c(=O)c4c3)cc12 [US9364482, 49] | 18 | 3.5 | 70 | 9.4 | 3.2 | 3.5 | 1.2 | 190 |
| CNC(=O)c1c(-c2ccc(F)cc2)oc2cc(N(C)S(C)(=O)=O)c(-c3ccc4nc(COC)n(Cc5ccc(F)cc5)c(=O)c4c3)cc12 [US9364482, 53] | 8.2 | 0.9 | 4.1 | 3.7 | 2.1 | 2.4 | 0.8 | 19 |
| CNC(=O)c1c(-c2ccc(F)cc2)oc2cc(N(C)S(C)(=O)=O)c(-c3ccc4nc(CNC(C)=O)n(Cc5ccc(F)cc5)c(=O)c4c3)cc12 [US9364482, 54] | 58 | 6.6 | 32 | 5.9 | 1.1 | 2.8 | 1.4 | 8.3 |
| CNC(=O)c1c(-c2ccc(F)cc2)oc2cc(N(C)S(C)(=O)=O)c(-c3ccc4nc(C)n(Cc5ccc(F)cc5)c(=O)c4c3)cc12 [US9364482, 55] | 4.1 | 0.6 | 2.9 | 1.5 | 0.3 | 1.1 | 0.6 | 7.1 |
| CNC(=O)c1c(-c2ccc(F)cc2)oc2cc(N(C)S(C)(=O)=O)c(-c3ccc4nc(C)n(Cc5ccc(F)cc5)c(=O)c4n3)cc12 [US9364482, 68] | 10 | 2.9 | 36 | 2.7 | 1.1 | 1.6 | 1 | 137 |
| CNC(=O)c1c(-c2ccc(F)cc2)oc2cc(N(C)S(C)(=O)=O)c(-c3cc4c(=O)n(Cc5ccc(F)cc5)nnc4cc3F)cc12 [US9364482, 70] | 6.1 | 1.2 | 5.6 | 2.9 | 0.7 | 2.7 | 1.2 | 47 |
| CNC(=O)c1c(-c2ccc(F)cc2)oc2cc(N(C)S(C)(=O)=O)c(-c3cc(OC)c4nnn(Cc5ccc(F)cc5)c(=O)c4c3)cc12 [US9364482, 71] | 3.9 | 0.4 | 4.6 | 3.1 | 0.8 | 1.6 | 0.7 | 12 |
| CNC(=O)c1c(-c2ccc(F)cc2)oc2cc(N(C)S(C)(=O)=O)c(-c3cc4c(=O)n(Cc5ccc(F)cc5)nnc4cc3C)cc12 [US9364482, 72] | 6.6 | 1 | 6.2 | 4.7 | 2.3 | 4.4 | 1.1 | 16 |
| CNC(=O)c1c(-c2ccc(F)cc2)oc2cc(N(C)S(C)(=O)=O)c(-c3cc4c(=O)n(Cc5ccc(F)cc5)nnc4cc3Cl)cc12 [US9364482, 73] | 15 | 1 | 12 | 8.8 | 3 | 5.5 | 1.5 | 42 |
| CNC(=O)c1c(-c2ccc(F)cc2)oc2cc(N(C)S(C)(=O)=O)c(-c3cc(C)c4nnn(Cc5ccc(F)cc5)c(=O)c4c3)cc12 [US9364482, 74] | 6.1 | 0.8 | 29 | 6.8 | 1.8 | 3.3 | 1.4 | 120 |
